The source made the active and inactive calls.
Legend:
[1] = inhibitors of firefly luciferase expression or activity, dose response, H4 neuroglioma cells, luminescence (AID 1990); assay type: functional, cell-based
[2] = system: Danio rerio; assay: In Vivo Angiogenesis Dose-Response Confirmation. [Related pubchem assays: 732 (Assay preceding this confirmatory assay.)]; assay type: functional, organism-based
[3] = Luminescence Cell-Based Dose Response HTS to Identify Inhibitors of 5'UTR Stem-Loop Driven Prion Protein mRNA Translation in H4 Neuroglioblastoma Cells. [Related pubchem assays: 1827 (Project Summary), 1813 (Primary HTS)]; assay type: functional
[4] = biological target: Cytochrome P450 3A4 (Homo sapiens, UniProt P08684);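 note: CYP3A4 tested as one member of a cytochrome P450 panel screen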
[5] = biological target: Cytochrome P450 2C19 (Homo sapiens, UniProt P33261); assay: qHTS Assay for Inhibitors and Substrates of Cytochrome P450 2C19. [Related pubchem assays: 410 ]; assay type: ADME; conditions: read-out: Potency
Sequence of Cytochrome P450 2C19 (P33261 whole entry): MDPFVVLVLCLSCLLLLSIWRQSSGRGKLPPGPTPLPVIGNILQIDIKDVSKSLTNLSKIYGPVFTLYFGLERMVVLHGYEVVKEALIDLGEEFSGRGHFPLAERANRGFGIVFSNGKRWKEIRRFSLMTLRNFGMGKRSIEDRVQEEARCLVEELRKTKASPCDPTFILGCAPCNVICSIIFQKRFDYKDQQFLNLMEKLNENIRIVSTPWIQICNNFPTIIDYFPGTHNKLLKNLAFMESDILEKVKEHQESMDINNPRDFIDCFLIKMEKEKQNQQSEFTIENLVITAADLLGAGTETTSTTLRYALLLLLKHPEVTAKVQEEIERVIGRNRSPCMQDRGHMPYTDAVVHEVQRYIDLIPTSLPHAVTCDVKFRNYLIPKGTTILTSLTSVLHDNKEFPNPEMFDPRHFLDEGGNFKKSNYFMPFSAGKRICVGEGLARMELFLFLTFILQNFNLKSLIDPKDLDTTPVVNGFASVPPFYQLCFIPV

[6] = biological target: Photoreceptor-specific nuclear receptor (Homo sapiens, UniProt Q9Y5X4); assay: NR2E3 inverse agonists, dose response, biochemical, TR-FRET (AID 463256); assay type: functional
[7] = biological target: Peroxisome proliferator-activated receptor gamma/Nuclear receptor corepressor 2 (Homo sapiens, UniProt P37231+Q9Y618); assay: Counterscreen for NR2E3 inverse agonists: TR-FRET-based biochemical high throughput dose response assay to identify inverse agonists of the interaction between peroxisome proliferator-activated receptor gamma (PPARg) and nuclear receptor co-repressor 2 (NCOR2).; assay type: functional
[8] = biological target: Peroxisome proliferator-activated receptor gamma/Nuclear receptor coactivator 2 (Homo sapiens, UniProt P37231); assay: (§1) TR-FRET dose response biochemical High Throughput Screening assay for agonists of the steroid receptor coactivator 2 (SRC-2) recruitment by the peroxisome proliferator-activated receptor gamma (PPAR gamma): non-selective agonists. [Related pubchem assays: 1297, 1032 ]; assay type: functional
Sequence of Peroxisome proliferator-activated receptor gamma/Nuclear receptor coactivator 2 (P37231 whole entry): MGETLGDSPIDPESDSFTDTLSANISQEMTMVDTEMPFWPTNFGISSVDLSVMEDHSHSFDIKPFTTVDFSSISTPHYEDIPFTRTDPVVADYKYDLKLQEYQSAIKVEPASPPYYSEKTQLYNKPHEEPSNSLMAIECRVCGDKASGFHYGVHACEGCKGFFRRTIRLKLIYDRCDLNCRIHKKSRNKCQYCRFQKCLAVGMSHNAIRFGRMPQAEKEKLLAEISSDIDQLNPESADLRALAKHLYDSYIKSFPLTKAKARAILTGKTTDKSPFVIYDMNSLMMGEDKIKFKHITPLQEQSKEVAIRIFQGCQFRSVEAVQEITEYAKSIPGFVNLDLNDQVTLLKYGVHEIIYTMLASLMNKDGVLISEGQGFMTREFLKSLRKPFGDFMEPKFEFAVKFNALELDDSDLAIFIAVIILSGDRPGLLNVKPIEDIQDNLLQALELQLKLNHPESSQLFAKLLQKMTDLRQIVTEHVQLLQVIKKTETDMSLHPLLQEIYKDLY
Sequence of Peroxisome proliferator-activated receptor gamma/Nuclear receptor coactivator 2 (Q15596 whole entry, further chain): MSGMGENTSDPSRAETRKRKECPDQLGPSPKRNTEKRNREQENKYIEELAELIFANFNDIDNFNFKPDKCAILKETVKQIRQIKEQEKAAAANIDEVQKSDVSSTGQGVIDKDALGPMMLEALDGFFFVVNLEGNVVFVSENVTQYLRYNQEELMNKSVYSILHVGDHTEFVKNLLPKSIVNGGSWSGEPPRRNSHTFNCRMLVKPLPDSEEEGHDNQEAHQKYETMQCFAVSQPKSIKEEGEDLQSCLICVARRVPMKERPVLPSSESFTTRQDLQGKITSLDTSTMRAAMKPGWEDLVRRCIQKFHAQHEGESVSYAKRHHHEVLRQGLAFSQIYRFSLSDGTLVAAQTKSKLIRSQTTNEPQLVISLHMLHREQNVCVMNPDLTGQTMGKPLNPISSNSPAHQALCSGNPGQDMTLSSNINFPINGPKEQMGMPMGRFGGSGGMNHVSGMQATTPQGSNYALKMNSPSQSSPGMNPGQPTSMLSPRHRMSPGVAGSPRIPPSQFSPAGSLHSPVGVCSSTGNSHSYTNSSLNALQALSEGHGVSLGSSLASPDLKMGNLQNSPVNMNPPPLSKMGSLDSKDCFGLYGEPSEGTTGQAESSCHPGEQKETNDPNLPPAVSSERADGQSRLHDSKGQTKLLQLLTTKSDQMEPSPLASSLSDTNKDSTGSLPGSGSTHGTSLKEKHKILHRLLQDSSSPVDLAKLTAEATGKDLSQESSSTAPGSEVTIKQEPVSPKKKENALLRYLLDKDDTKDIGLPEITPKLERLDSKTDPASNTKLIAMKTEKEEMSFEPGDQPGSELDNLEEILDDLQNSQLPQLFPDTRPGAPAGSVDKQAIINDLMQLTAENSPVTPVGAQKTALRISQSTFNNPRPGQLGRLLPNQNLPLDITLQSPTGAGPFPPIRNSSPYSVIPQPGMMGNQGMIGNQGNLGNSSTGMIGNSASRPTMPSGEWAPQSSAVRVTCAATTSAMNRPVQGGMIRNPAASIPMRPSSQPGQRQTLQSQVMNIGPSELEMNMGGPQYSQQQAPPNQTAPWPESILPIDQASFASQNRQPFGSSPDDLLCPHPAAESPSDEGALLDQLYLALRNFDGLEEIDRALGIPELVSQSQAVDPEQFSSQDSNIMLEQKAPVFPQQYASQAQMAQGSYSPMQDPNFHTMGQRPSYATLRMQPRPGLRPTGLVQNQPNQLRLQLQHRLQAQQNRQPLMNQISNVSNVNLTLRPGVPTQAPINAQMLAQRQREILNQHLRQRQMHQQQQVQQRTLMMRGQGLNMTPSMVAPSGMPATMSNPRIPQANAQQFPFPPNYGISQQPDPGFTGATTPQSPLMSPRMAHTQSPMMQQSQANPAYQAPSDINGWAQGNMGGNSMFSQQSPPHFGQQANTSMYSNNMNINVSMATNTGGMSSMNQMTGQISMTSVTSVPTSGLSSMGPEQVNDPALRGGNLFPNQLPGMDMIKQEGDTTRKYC

[9] = biological target: Peroxisome proliferator-activated receptor gamma/Nuclear receptor coactivator 3 (Homo sapiens, UniProt P37231); assay: as §1, with “3 (SRC-3)” for “2 (SRC-2)”, “1301 (Confirmation screen.), 1048 (Primary screen.)]” for “1297, 1032 ]”; assay type: functional
Sequence of Peroxisome proliferator-activated receptor gamma/Nuclear receptor coactivator 3 (P37231 whole entry): as the sequence (P37231 whole entry) above
Sequence of Peroxisome proliferator-activated receptor gamma/Nuclear receptor coactivator 3 (Q9Y6Q9 whole entry, further chain): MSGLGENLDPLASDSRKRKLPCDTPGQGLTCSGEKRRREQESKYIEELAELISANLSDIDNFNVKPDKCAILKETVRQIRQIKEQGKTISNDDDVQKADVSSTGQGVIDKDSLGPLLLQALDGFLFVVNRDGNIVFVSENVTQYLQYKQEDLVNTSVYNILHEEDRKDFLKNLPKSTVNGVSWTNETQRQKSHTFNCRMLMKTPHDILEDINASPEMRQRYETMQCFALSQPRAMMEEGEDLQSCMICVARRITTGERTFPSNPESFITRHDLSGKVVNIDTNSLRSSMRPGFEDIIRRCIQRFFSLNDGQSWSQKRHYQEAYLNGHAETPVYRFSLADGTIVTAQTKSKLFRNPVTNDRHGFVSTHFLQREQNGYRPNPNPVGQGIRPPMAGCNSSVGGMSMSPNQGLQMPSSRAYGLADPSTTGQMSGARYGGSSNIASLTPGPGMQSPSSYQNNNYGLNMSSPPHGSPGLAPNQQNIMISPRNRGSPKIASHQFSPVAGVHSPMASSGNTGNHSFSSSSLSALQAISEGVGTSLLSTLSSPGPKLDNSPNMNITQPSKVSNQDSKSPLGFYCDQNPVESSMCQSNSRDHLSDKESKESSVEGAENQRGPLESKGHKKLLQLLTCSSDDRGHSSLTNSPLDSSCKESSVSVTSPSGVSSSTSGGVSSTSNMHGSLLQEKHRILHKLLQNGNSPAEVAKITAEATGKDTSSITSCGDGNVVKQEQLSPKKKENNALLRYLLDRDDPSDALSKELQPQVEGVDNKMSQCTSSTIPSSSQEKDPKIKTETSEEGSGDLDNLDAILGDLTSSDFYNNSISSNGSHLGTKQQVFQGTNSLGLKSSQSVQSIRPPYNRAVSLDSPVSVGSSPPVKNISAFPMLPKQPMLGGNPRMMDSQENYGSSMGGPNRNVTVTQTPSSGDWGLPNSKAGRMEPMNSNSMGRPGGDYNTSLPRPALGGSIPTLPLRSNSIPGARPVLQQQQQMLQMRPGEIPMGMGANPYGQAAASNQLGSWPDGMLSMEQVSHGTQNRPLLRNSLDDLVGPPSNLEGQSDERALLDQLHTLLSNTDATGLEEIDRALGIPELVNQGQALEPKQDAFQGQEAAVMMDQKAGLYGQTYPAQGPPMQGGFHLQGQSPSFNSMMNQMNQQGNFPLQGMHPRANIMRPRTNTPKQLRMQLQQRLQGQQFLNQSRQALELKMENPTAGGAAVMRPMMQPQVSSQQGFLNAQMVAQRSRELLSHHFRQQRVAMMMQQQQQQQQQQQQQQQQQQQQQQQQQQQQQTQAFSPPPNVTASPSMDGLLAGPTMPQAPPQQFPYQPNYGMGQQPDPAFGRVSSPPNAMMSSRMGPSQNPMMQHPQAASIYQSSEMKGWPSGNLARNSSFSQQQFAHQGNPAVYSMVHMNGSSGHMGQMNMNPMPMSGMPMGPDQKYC

[10] = biological target: Peroxisome proliferator-activated receptor gamma/Nuclear receptor coactivator 1 (Homo sapiens, UniProt P37231); assay: as §1, with “1 (SRC-1)” for “2 (SRC-2)”, “assays (depositor defined):AID1300, AID1808, AID504735, AID631]” for “assays: 1297, 1032 ]”; assay type: protein assay
[11] = biological target: T1, Leucine aminopeptidase (Plasmodium falciparum 3D7, UniProt Q8IL11); assay: P. falciparum M17LAP inhibitors, primary screen, biochemical, fluorogenic H-Leu-NHMec substrate, 1536-well (AID 1619); assay type: functional
T1 sequence (Q8IL11 whole entry): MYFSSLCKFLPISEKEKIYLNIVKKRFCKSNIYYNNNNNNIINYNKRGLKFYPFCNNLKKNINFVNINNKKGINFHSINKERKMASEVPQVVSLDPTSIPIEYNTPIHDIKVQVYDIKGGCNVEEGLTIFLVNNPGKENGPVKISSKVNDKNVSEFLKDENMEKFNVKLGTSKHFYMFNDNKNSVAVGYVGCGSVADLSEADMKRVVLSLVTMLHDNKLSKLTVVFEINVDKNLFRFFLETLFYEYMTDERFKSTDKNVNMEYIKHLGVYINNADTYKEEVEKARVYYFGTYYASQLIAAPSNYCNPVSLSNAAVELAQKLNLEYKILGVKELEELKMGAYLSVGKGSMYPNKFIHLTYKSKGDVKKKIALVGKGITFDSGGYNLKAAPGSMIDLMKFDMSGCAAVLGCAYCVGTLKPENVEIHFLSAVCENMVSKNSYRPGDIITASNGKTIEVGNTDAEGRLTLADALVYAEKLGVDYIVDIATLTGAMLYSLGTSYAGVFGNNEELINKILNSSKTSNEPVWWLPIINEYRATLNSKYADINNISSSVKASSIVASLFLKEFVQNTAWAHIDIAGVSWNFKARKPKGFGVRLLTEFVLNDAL

[12] = biological target: Large T antigen (Simian virus 40, UniProt P03070); assay type: functional, Betapolyomavirus macacae;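 note: Confirmatory-stage PubChem screen for compounds that inhibit SV40 T antigen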
[13] = biological target: Heat shock protein HSP90 (Homo sapiens, UniProt P07900+P08238); assay: tumor Hsp90 inhibitor potency, dose response (AID 712); assay type: functional
[14] = Luminescent dose response cell-based high throughput screening assay for inhibitors of the Janus kinase 2 mutant JAK2V617F. [Related pubchem assays: 1446 (Primary screen.), 1521 (Confirmation assay.), 1486 (Counter screen.)]; assay type: functional
[15] = biological target: FAD-linked sulfhydryl oxidase ALR (Homo sapiens, UniProt P55789); assay: inhibitors of human ALR sulfhydryl oxidase, dose response, biochemical, H2O2 detection, luminescence, cherry-pick (AID 493248)
Sequence of FAD-linked sulfhydryl oxidase ALR (P55789 whole entry): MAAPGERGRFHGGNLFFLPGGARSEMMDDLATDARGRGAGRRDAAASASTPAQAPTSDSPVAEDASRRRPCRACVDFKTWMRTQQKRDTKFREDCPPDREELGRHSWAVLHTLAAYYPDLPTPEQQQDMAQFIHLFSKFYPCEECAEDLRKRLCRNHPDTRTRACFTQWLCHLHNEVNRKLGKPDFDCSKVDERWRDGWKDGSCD

[16] = biological target: T2, Rac GTPase-activating protein 1 (Homo sapiens, UniProt Q9H0H5); assay: MgcRacGAP GTPase-activating activity inhibitors, confirmation, biochemical, ADP Hunter fluorescence, primary and confirmatory (AID 624330); assay type: functional
T2 sequence (Q9H0H5 whole entry): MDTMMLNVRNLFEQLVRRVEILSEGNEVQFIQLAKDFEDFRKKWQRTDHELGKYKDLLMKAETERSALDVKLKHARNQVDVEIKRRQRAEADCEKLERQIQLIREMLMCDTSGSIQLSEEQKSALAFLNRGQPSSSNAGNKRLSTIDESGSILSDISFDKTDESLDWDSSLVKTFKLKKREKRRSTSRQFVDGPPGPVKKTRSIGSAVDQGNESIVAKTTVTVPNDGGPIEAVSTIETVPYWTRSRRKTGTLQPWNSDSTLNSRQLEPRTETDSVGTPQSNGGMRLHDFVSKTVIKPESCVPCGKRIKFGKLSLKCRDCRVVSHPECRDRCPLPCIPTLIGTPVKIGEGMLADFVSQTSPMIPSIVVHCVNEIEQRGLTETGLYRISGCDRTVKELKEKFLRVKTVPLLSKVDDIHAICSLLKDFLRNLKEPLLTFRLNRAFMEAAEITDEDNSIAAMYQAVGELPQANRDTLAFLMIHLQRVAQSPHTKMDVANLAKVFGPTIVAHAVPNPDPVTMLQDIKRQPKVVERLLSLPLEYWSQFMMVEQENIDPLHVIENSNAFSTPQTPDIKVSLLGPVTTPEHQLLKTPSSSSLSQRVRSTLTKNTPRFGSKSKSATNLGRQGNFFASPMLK

[17] = non-specific cell cytotoxicity, dose response, cytotoxicity control for PAX8 inhibitor project, plate reader, dry powder samples (AID 743021); assay type: functional, cell-based
[18] = biological target: Ephrin type-A receptor 4 (Mus musculus, UniProt Q03137); assay: inhibitors of EphA4 binding to KYL peptide, primary screen, biochemical, colorimetric, mouse EphA4 (AID 689); assay type: functional
[19] = biological target: Paired box protein Pax-8 (Homo sapiens, UniProt Q06710); assay: inhibitors of PAX8-driven TPO luciferase reporter, dose response, RMG-I cells, cherry-pick (AID 687027); assay type: functional, cell-based;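 note: luciferase reporter driven by Pax8 target thyroperoxidase promoter measured by SteadyGlo luminescence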
[20] = biological target: T3, Bcl-2-related protein A1 (Mus musculus, UniProt Q07440); assay: Bfl-1 inhibitors blocking BH3 peptide binding, confirmation, biochemical, TR-FRET, mouse Bfl-1 (AID 621);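 note: TR-FRET binding of GST-Bfl-1 to FITC-labelled Bid peptide via terbium antibody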
T3 sequence (Q07440 whole entry): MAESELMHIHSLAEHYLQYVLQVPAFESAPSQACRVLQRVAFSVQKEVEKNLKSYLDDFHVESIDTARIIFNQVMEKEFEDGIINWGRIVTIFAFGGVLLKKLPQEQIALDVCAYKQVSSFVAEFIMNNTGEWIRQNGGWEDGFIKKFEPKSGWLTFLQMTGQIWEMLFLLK

[21] = biological target: T4, RNA-binding protein pos-1 (Caenorhabditis elegans, UniProt G5EF15); assay: inhibitors of POS-1/mex-3 RNA binding, dose response, biochemical, fluorescence polarization (AID 1964);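 note: purified POS-1 fused to maltose binding protein made in E. coli; potency of compounds blocking POS-1 binding to fluorescent RNA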
T4 sequence (G5EF15 whole entry): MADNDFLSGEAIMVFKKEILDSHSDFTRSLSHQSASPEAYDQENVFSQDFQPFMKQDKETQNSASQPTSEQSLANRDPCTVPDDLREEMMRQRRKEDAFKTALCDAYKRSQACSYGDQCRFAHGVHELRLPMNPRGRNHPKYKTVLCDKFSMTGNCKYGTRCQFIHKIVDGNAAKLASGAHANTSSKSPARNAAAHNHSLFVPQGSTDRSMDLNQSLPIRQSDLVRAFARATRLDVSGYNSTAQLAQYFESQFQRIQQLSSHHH

[22] = biological target: T5, Heat shock factor protein 1 (Mus musculus, UniProt P38532); assay: HSF1 potentiators in luciferase reporter cells, confirmation, cell-based, NIH3T3, luminescence, dose retest (AID 435004); assay type: functional;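 note: stress induced by proteasome inhibitor MG132 added 30 min after compound; luciferase reporter driven by HSF1 response element in NIH3T3 cells; actives raise luminescence as potentiators of the MG132 stress response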
T5 sequence (P38532 whole entry): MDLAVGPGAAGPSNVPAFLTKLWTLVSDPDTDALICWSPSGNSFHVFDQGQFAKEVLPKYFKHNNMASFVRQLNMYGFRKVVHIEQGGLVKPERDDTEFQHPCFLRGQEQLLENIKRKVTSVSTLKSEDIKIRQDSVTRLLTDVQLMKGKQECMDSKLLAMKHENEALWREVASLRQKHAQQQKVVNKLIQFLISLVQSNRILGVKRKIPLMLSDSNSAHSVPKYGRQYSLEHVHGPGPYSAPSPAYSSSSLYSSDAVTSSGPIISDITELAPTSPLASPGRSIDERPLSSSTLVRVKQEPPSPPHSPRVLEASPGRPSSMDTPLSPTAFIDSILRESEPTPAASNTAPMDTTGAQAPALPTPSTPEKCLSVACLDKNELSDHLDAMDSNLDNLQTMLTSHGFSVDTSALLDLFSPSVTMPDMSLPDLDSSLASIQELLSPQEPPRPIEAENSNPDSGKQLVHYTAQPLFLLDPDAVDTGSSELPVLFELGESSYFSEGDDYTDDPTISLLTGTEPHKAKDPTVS

[23] = biological target: T3, Bcl-2-related protein A1; assay: Bfl-1 inhibitors, primary screen, biochemical, fluorescence polarization, FITC-Bid, mouse (AID 432)
[24] = biological target: T6, Zinc finger protein mex-5 (Caenorhabditis elegans, UniProt Q9XUB2); assay: MEX-5/TCR-2 RNA interaction inhibitors, dose response, biochemical, C. elegans, fluorescence polarization (AID 1960)
T6 sequence (Q9XUB2 whole entry): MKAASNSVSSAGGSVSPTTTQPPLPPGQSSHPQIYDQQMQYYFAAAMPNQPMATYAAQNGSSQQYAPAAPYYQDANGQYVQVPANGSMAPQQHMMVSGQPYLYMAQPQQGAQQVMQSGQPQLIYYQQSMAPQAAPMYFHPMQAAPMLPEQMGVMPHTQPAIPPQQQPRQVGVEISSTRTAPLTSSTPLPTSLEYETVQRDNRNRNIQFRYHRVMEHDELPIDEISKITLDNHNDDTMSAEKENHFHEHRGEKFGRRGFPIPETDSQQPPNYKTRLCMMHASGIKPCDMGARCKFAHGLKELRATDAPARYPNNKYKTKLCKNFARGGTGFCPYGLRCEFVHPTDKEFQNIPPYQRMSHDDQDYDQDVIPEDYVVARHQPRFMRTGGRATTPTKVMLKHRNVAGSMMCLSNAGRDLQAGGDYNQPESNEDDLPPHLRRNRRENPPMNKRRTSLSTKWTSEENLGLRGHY

[25] = biological target: G-protein coupled receptor 35 (Homo sapiens, UniProt Q9HC97); assay: GPR35 antagonists blocking zaprinast-driven arrestin recruitment, primary screen, imaging, U2OS, beta-arrestin-GFP, zaprinast agonist (AID 2058); assay type: functional;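 note: antagonist potency meaning inhibition of agonist-induced arrestin redistribution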
Sequence of G-protein coupled receptor 35 (Q9HC97 whole entry): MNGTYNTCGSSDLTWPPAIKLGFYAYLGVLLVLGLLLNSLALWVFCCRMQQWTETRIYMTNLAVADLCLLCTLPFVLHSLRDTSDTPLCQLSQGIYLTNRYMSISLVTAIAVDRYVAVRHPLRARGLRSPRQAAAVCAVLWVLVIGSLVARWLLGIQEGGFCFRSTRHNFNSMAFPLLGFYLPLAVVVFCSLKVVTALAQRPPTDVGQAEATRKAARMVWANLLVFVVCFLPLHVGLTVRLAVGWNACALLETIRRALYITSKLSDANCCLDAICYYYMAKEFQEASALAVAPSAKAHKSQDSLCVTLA

[26] = Late stage counterscreen results from the probe development effort to identify activators of signal transducer and activator of transcription 1 (STAT1): luminescence-based cell-based dose response assay to identify cytotoxic compounds.; assay type: functional

NC(=O)c1cc(N2CC2)c([N+](=O)[O-])cc1[N+](=O)[O-] [TRETAZICAR]
EC50 [1]: > 120 µM (not active)
IC50 [2]: 1.2 µM (not active)
EC50 [3]: > 120 µM (not active)
AC50 [4]: 39.8 µM (inconclusive)

COc1cc2oc(-c3ccccc3)cc(=O)c2cc1OC
AC50 [5]: 31.6 µM (inconclusive)

Cc1ccc(S(=O)(=O)Nc2cnn(-c3ccccc3)c(=O)c2Cl)cc1
IC50 [6]: > 39.8 µM (not active)
IC50 [7]: > 39.8 µM (not active)
EC50 [8]: 19.2 µM (not active)
EC50 [9]: > 79.4 µM (not active)
EC50 [10]: > 79.4 µM (inactive)

CCCc1nc2ccccc2c(=O)n1/N=C/c1ccc(O)c(O)c1
IC50 [11]: 24.2 µM (active)
IC50 [12]: 10.5 µM (active)
IC50 [13]: 17.5816 µM
IC50 [14]: 2.18 µM (active)
AC50 [15]: 0.577 µM (active)
IC50 [16]: 38.8 µM (active)

FC(F)(F)c1nnc2c(Sc3ccccn3)nc3ccccc3n12
AC50 [17]: 55.5 µM (active)
IC50 [18]: > 100 µM (not active)
AC50 [19]: 7.08 µM (active)

CN1CC=C2C(C#N)=C(N)C(C#N)(C#N)C(c3cccc(Cl)c3Cl)C2C1 (stereo unspecified)
IC50 [20]: > 100 µM (not active)
EC50 [21]: 14.4 µM (active)
EC50 [22]: > 260 µM (inactive)
IC50 [23]: > 100 µM (not active)
EC50 [24]: 13.5 µM (active)
IC50 [25]: 12 µM (inactive)

Cc1ccc(C(=O)Nc2nc3ccccc3s2)s1
IC50 [26]: > 55.7 µM (not active)

From ChEMBL document CHEMBL1201862, “PubChem BioAssay data set” (2004)
